Test results from patent US20050020630A1, “Cycloalkyl and heterocycloalkyl substituted benzothiophenes as therapeutic agents” (priority 2003, published 2005).

What follows are compounds tested against T1, PI3Kγ (Homo sapiens, UniProt P48736) (assay: PI3Kγ In Vitro Kinase Assay). Details: purified recombinant p101/p110 γ protein with G protein β1/γ2 subunits; 20 μM ATP, 25 μM PIP2; 20 minutes at room temperature; radioactive PIP3 readout.
T1 construct: HA; made in house; host or cells: Spodoptera frugiperda (Sf9) cells, baculovirus co-infection
T1 sequence (P48736 whole entry, species assumed): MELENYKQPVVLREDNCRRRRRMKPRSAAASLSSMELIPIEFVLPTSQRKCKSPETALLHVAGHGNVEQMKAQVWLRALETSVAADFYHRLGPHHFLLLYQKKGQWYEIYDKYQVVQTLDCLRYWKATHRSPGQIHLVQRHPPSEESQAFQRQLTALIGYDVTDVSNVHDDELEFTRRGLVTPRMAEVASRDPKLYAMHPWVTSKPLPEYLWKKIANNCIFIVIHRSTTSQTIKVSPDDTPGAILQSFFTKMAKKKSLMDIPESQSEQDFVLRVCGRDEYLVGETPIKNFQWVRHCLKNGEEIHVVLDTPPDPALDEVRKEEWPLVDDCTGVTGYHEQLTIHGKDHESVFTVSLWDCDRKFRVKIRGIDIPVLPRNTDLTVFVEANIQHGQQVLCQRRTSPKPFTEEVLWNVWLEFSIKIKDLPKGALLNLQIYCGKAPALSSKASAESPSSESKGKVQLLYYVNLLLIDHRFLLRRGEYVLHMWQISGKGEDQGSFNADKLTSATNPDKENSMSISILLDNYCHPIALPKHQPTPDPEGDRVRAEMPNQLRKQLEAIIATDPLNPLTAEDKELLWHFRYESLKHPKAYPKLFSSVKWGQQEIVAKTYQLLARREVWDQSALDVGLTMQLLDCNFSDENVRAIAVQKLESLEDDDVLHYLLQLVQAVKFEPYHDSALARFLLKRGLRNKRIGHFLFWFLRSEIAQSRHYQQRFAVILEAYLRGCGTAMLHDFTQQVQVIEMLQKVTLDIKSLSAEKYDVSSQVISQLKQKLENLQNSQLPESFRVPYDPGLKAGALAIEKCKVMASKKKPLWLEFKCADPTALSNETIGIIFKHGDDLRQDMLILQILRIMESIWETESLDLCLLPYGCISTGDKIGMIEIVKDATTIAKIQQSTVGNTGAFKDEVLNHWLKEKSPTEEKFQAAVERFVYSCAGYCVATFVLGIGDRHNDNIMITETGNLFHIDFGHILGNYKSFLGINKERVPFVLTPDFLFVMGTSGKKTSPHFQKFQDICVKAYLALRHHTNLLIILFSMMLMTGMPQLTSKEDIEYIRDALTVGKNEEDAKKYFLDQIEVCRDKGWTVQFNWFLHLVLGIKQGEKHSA
T1 sequence (Q8WYR1 whole entry partner, species assumed): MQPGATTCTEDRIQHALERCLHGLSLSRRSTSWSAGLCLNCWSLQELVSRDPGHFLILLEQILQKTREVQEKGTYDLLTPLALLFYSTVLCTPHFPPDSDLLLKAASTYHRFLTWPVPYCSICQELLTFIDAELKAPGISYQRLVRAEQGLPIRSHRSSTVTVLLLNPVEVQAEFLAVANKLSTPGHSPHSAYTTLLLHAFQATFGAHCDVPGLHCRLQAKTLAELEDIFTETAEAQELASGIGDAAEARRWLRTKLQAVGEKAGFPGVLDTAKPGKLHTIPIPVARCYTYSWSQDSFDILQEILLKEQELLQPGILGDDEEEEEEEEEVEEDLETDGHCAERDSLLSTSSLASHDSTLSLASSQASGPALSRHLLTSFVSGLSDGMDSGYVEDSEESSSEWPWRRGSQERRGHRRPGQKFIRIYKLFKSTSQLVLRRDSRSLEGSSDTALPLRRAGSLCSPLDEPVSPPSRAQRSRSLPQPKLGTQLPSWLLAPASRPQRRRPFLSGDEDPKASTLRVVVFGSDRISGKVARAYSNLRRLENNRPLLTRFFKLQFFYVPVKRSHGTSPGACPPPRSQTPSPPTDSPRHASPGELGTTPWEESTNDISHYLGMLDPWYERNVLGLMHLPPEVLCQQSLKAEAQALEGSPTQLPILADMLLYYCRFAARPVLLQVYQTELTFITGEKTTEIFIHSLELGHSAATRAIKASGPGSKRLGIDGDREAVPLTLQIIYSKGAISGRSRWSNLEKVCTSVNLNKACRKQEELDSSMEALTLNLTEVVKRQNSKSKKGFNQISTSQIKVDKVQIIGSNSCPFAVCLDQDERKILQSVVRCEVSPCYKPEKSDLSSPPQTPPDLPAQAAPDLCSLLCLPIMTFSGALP
Assay type: biochemical
Protocol: Spodtera frugiperda cells, grown in ESF921 media, were coinfected with baculovirus expressing a glu-tagged p101 and baculovirus expressing an HA-tagged p110γ, at a 3:1 ratio of p101 baculovirus to p110γ baculovirus. Sf9 cells were grown to 1×10^7 total cells/mL in 10 L bioreactors and harvested 48-72 hours post infection. Samples of infected cells were then tested for expression of p101/p110 γ PI3 kinase by immunoprecipitation and Western Blot analysis methods (see below). To purify PI3Kγ, 4 volumes of room temperature hypotonic lysis buffer (1 mM MgCl2, 1 mM DTT, 5 mM EGTA, 1 mM Pefabloc, 0.5 μM aprotinin, 5 μM leupeptin, 2 μM pepstatin, 5 μM E64, pH 8) per gram of cell paste, was poured onto frozen cell pellets with stirring, then lysed in a nitrogen “bomb” at 400 psi (599HC […], Parr Instrument Co, Moline, Ill.). NaCl was added to 150 mM, and sodium cholate was added to 1% and mixed for another 45 minutes. The lysates were clarified by centrifugation for 25 minutes at 14,000 rpm. The lysates were then loaded over anti-glu-linked Protein-G Sepaharose beads (Covance Research Products, Richmond, Calif.) using 20 mL resin/50 g cell paste. The column was washed with 15 volumes of wash buffer (1 mM DTT, 0.2 mM EGTA, 1 mM Pefabloc, 0.5 μM aprotinin, 5 μM leupeptin, 2 μM pepstatin, 5 μM E64, 150 mM NaCl, 1% sodium cholate, pH 8). PI3Kγ was eluted with 6 column volumes of wash buffer that contain 100 μg/mL of a peptide that competes for binding of the glu tag. The column fractions with the eluted protein (determined by taking OD280 readings) were collected and dialyzed in 0.2 mM EGTA, 1 mM DTT, 1 mM Pefabloc, 5 μM leupeptin, 0.5% sodium cholate, 150 mM NaCl, and 50% glycerol, pH 8. The fractions were stored at -80° C. until further use. Spodtera frugiperda cells were coinfected with baculovirus expressing a glu-tagged G protein β1 and baculovirus expressing a G protein β2, at a 1:1 ratio of glu-tagged G protein β1 baculovirus to G protein β2 baculovirus. Sf9 cells are grown in 10 L bioreactors and harvested 48-72 hours post infection. Samples of infected cells were tested for G protein β1/β2 expression by Western Blot analysis, as described below. Cell lysates were homogenized and loaded onto a column of glu-tagged beads as in Biological Example 1 and competed off the column with a glu peptide and processed as described in Biological Example 1. The inhibitory properties of the compounds in Table 1 were assayed in an in vitro PI3K assay. In a 96-well polypropylene plate, each well was spotted with 2 μL of 50 times the desired final concentration of compound in DMSO. Purified recombinant p101/p110 γ protein (0.03 μg; 2.7 nM) and G protein β1/γ2 subunits (0.09 μg; 57.7 nM) for each reaction was combined in the assay buffer (30 mM HEPES, 100 mM NaCl, 1 mM EGTA, and 1 mM DTT). ATP and [γ-^32P-ATP] (0.09 μCi) were added to this mixture so that the final ATP concentration in the reaction was 20 μM. Lipid micelles were formed by sonicating phosphatidylinositol-4,5-diphosphate (PIP2), phosphatidylethanolamine (PE), and Na-cholate in the assay buffer for 10 minutes, adding MgCl2 and incubating on ice for 20 minutes, for final concentrations of 25 μM PIP2, 300 μM PE, 0.02% Na-cholate, and 10 mM MgCl2 in the reaction. The reactions were started by adding equal volumes lipid and enzyme mixture in a total volume of 50 μL, allowed to run for 20 minutes at room temperature, and stopped with 100 μL 75 mM H3PO4. The lipid product was transferred to a glass fiber filter plate and washed with 75 mM H3PO4 several times. The presence of radioactive lipid product (PIP3) was measured by adding Wallac Optiphase mix to each well and counting in a Wallac 1450 Trilux plate reader (PerkinElmer Life Sciences Inc., Boston, Mass. 02118). The IC50 for each compound tested is reported in μM in Table 1: […]
For COc1cc2sc(C(=O)Nc3nnn[nH]3)c(OCC3CC=CCC3)c2cc1OC (stereo not drawn) [Example 32, 3-(Cyclohex-3-enylmethoxy)-5,6-dimethoxy-benzo[b]thiophene-2-carboxylic acid (1H-tetrazol-5-yl)-amide], the IC50 was 101 nM. Work on COc1cc2sc(C(=O)Nc3nn[nH]n3)c(OC3CCC(C(C)(C)C)CC3)c2cc1OC (stereo not drawn) [Example 23, 3-(4-tert-Butyl-cyclohexyloxy)-5,6-dimethoxy-benzo[b]thiophene-2-carboxylic acid (2H-tetrazol-5-yl)-amide] yielded an IC50 of 56 nM. In the case of “3-Cycloheptylmethoxy-5,6-dimethoxy-benzo[b]thiophene-2-carboxylic acid (1H-tetrazol-5-yl)-amide [Example 42]”, the IC50 is reported as 36 nM. COc1cc2sc(C(=O)Nc3nnn[nH]3)c(OC3CCC4CCCCC4C3)c2cc1OC (stereo not drawn) [Example 47, 3-(Decahydro-naphthalen-2-yloxy)-5,6-dimethoxy-benzo[b]thiophene-2-carboxylic acid (1H-tetrazol-5-yl)-amide] was tested, and the IC50 was 112 nM. COc1cc2c(OC3CCN(C4CCCCC4)CC3)c(C(=O)Nc3nn[nH]n3)sc2cc1C [Example 11, 3-(1-Cyclohexyl-piperdin-4-yloxy)-5-methoxy-6-methyl-benzo[b]thiophene-2-carboxylic acid (2H-tetrazol-5-yl-amide)] gave an IC50 of 965 nM. COc1cc2c(OC3CCN(C(=O)OC(C)(C)C)CC3)c(C(=O)Nc3nn[nH]n3)sc2cc1C [Example 17, 4-[5-Methoxy-6-methyl-2-(2H-tetrazol-5-ylcarbamoyl)-benzo[b]thiophene-3-yloxy]-piperidine-1-carboxylic acid tert-butyl ester] gave an IC50 of 24 nM. COc1cc2sc(C(=O)Nc3nnn[nH]3)c(OC3CCCCCCC3)c2cc1OC [Example 33, 3-Cyclooctyloxy-5,6-dimethoxy-benzo[b]thiophene-2-carboxylic acid (1H-tetrazol-5-yl)-amide] showed an IC50 of 48 nM. With “3-(3,5-Dimethyl-cyclohexloxy)-5,6-dimethoxy-benzo[b]thiophene-2-carboxylic acid (1H-tetrazol-5-yl)-amide [Example 34]” the IC50 was 32 nM. Compound COc1cc2sc(C(=O)Nc3nnn[nH]3)c(OCCCC3CCCCC3)c2cc1OC [Example 36, 3-(3-Cyclohexyl-propoxy)-5,6-dimethoxy-benzo[b]thiophene-2-carboxylic acid (1H-tetrazol-5-yl)-amide] has an IC50 of 23 nM. In the case of COc1cc2sc(C(=O)Nc3nnn[nH]3)c(OCCC3CC3)c2cc1OC [Example 19, 3-(2-Cyclopropyl-ethoxy)-5,6-dimethoxy-benzo[b]thiophene-2-carboxylic acid (1H-tetrazol-5-yl)-amide], the IC50 is reported as 371 nM. Compound COc1cc2sc(C(=O)Nc3nnn[nH]3)c(OC3CCN(Cc4ccccc4)CC3)c2cc1OC [Example 49, 3-(1-Benzyl-piperidin-4-yloxy)-5,6-dimethoxy-benzo[b]thiophene-2-carboxylic acid (1H-tetrazol-5-yl)-amide] has an IC50 of 2550 nM. In the case of COc1cc2c(OC3CCCCCC3)c(C(=O)Nc3nn[nH]n3)sc2cc1C [Example 8, 3-Cycloheptyloxy-5-methoxy-6-methyl-benzo[b]thiophene-2-carboxylic acid (2H-tetrazol-5-yl)-amide], the IC50 is reported as 5 nM. In the case of COc1cc2sc(C(=O)Nc3nnn[nH]3)c(OCC3(C)CC3)c2cc1OC [Example 37, 5,6-Dimethoxy-3-(1-methyl-cyclopropylmethoxy)-benzo[b]thiophene-2-carboxylic acid (1H-tetrazol-5-yl)-amide], the IC50 is reported as 51 nM. Compound COc1cc2sc(C(=O)Nc3nn[nH]n3)c(OC3CCCCC3)c2cc1C [Example 51, 3-Cyclohexyloxy-6-methoxy-5-methyl-benzo[b]thiophene-2-carboxylic acid (2H-tetrazol-5-yl)-amide] has an IC50 of 20 nM. For COc1cc2sc(C(=O)Nc3nnn[nH]3)c(OC3CCCC3)c2cc1OC [Example 50, 3-Cyclopentyloxy-5,6-dimethoxy-benzo[b]thiophene-2-carboxylic acid (1H-tetrazol-5-yl)-amide], the IC50 was 120 nM. “5,6-Dimethoxy-3-(3-methyl-oxetan-3-ylmethylmethoxy)-benzo[b]thiophene-2-carboxylic acid (1H-tetrazol-5-yl)-amide [Example 25]” showed an IC50 of 445 nM. With COc1cc2sc(C(=O)Nc3nn[nH]n3)c(OCC3CC3(Cl)Cl)c2cc1OC (stereo not drawn) [Example 20, 3-(2,2-Dichloro-cyclopropylmethoxy)-5,6-dimethoxy-benzo[b]thiophene-2-carboxylic acid (2H-tetrazol-5-yl)-amide] the IC50 was 453 nM. COc1cc2sc(C(=O)Nc3nnn[nH]3)c(OC3CC(C)CC(C)(C)C3)c2cc1OC (stereo not drawn) [Example 48, 5,6-Dimethoxy-3-(3,3,5-trimethyl-cyclohexyloxy)-benzo[b]thiophene-2-carboxylic acid (1H-tetrazol-5-yl)-amide] showed an IC50 of 170 nM. Work on COc1cc2sc(C(=O)Nc3nn[nH]n3)c(OC3CCCCC3)c2cc1OC [Example 22, 3-Cyclohexyloxy-5,6-dimethoxy-benzo[b]thiophene-2-carboxylic acid (2H-tetrazol-5-yl)-amide] yielded an IC50 of 34 nM. Work on COc1cc2sc(C(=O)Nc3nnn[nH]3)c(OC3CC(C)CC(C)C3)c2cc1OC (stereo not drawn) [Example 46, 3-(3,5-Dimethyl-cyclohexyloxy)-5,6-dimethoxy-benzo[b]thiophene-2-carboxylic acid (1H-tetrazol-5-yl)-amide] yielded an IC50 of 30 nM. With COc1cc2sc(C(=O)Nc3nnn[nH]3)c(OC3CCCCCC3)c2cc1OC [Example 39, 3-Cycloheptyloxy-5,6-dimethoxy-benzo[b]thiophene-2-carboxylic acid (1H-tetrazol-5-yl)-amide] the IC50 was 37 nM. Compound COc1cc2c(OC3CCN(C(C)=O)CC3)c(C(=O)Nc3nn[nH]n3)sc2cc1C [Example 16, 3-(1-Acetyl-piperidin-4-yloxy)-5-methoxy-6-methyl-benzo[b]thiophene-2-carboxylic acid (2H-tetrazol-5-yl)-amide] has an IC50 of 25 nM. With COc1cc2sc(C(=O)Nc3nnn[nH]3)c(OC3CCC(C)C(C)C3)c2cc1OC (stereo not drawn) [Example 45, 3-(3,4-Dimethyl-cyclohexyloxy)-5,6-dimethoxy-benzo[b]thiophene-2-carboxylic acid (1H-tetrazol-5-yl)-amide] the IC50 was 52 nM. With COc1cc2sc(C(=O)Nc3nnn[nH]3)c(OC3CCC(C4CCCCC4)CC3)c2cc1OC (stereo not drawn) [Example 30, 3-(Bicyclohexyl-4-yloxy)-5,6-dimethoxy-benzo[b]thiophene-2-carboxylic acid (1H-tetrazol-5-yl)-amide] the IC50 was 110 nM. CCC1(COc2c(C(=O)Nc3nnn[nH]3)sc3cc(OC)c(OC)cc23)COC1 [Example 28, 3-(3-Ethyl-oxetan-3-ylmethoxy)-5,6dimethoxy-benzo[b]thiophene-2-carboxylic acid (1H-tetrazol-5-yl)-amide] was tested, and the IC50 was 245 nM. For COc1cc2c(OC3CC(C)CC(C)(C)C3)c(C(=O)Nc3nn[nH]n3)sc2cc1C (stereo not drawn) [Example 4, 5-Methoxy-6-methyl-3-(3,3,5-trimethyl-cyclohexyloxy)-benzo[b]thiophene-2-carboxylic acid (2H-tetrazol-5-yl)-amide], the IC50 was 9 nM. CCC(Oc1c(C(=O)Nc2nnn[nH]2)sc2cc(OC)c(OC)cc12)C1CCCCC1 (stereo not drawn) [Example 44, 3-(1-Cyclohexyl-propoxy)-5,6-dimethoxy-benzo[b]thiophene-2-carboxylic acid (1H-tetrazol-5-yl)-amide] was tested, and the IC50 was 160 nM.
